Numbers after ± are expanded uncertainties.

The data set in a line: activity coefficient (dimensionless); of the first substance listed, at infinite dilution; xn = mol fraction of the nth substance listed. To be noted: 363.65 K; Liquid; x1 = 0.
For the molecule `CCO` [ethanol] + CCCCCCCC[n+]1ccn(C)c1.F[B-](F)(F)F, the activity coefficient worked out at 0.81 ± 0.06.

Turning to `CCO` [ethanol] + CCCCn1cc[n+](C)c1.F[B-](F)(F)F, the activity coefficient was 1.25 ± 0.08.

On to `CCO` [ethanol] + CCCCn1cc[n+](C)c1.[Cl-], for which the activity coefficient came out at 0.2 ± 0.07.

As to `CCO` [ethanol] + CCn1cc[n+](C)c1.F[B-](F)(F)F, the activity coefficient was determined as 1.33 ± 0.09.

Regarding `CO` [methanol] + CCn1cc[n+](C)c1.F[B-](F)(F)F, the activity coefficient came to 0.4 ± 0.07.

`C1CCOC1` [tetrahydrofuran] + CCCCCCCC[n+]1ccn(C)c1.F[B-](F)(F)F: the activity coefficient was determined as 1.09 ± 0.06.

Take `C1CCOC1` [tetrahydrofuran] + CCCCn1cc[n+](C)c1.F[B-](F)(F)F: the activity coefficient stood at 2 ± 0.18.

Consider `C1CCOC1` [tetrahydrofuran] + CCCCn1cc[n+](C)c1.[Cl-], for which the activity coefficient came to 3.81 ± 0.35.

With `C1CCOC1` [tetrahydrofuran] + CCn1cc[n+](C)c1.F[B-](F)(F)F, the activity coefficient amounted to 3.48 ± 0.32.

For the molecule `O` [water] + CCCCCCCC[n+]1ccn(C)c1.F[B-](F)(F)F, the activity coefficient amounted to 0.68 ± 0.06.

`O` [water] + CCCCn1cc[n+](C)c1.F[B-](F)(F)F: the activity coefficient was found to be 0.61 ± 0.06.

Take `O` [water] + CCCCn1cc[n+](C)c1.[Cl-]: the activity coefficient worked out at 0.1.

As for `O` [water] + CCn1cc[n+](C)c1.F[B-](F)(F)F, the activity coefficient was found to be 0.45 ± 0.07.
